Read-outs that look alike come from different tables or passages of the source.
Key:
[1] = molecular target: IRAK4 enzyme (Homo sapiens (Human), UniProt Q9NWZ3); test: biochemical; format: biochemical; conditions: IRAK4 enzyme, 500 μM ATP
[2] = tested on: TNFα; test: cells; format: cell-based, human; conditions: Homo sapiens, Monocyte, LPS-stimulated human monocytes, read-out: EC50 TNF
Procedure: IRAK4 Monocyte TNFα Cell Based Assay Procedure:
The cell suspension was then plated at a density of 5,000 cells/well onto black 384 well Greiner clear bottom plates. Plates were pre-spotted with test compounds and serially diluted in DMSO where 200 nL/well were delivered using the Echo 550 acoustic liquid dispenser (Labcyte®) for a final DMSO concentration of 0.5%. Plated cells were treated with compound for 1 hour at 37° C. Cells were then stimulated with 50 pg/ml of LPS (Sigma) excluding outside columns of plate used for unstimulated cell control wells. Cells were incubated for an additional 4 hours at 37° C. Cells were then spun out of the media and 5 μl of sample were taken and analyzed for total TNFα content using the TR-FRET Human TNFα detection system (CisBio). This system utilizes two labeled antibodies (cryptate and XL665) that bind to two different epitopes of the TNFα molecule and produce FRET signal proportional to the concentration of TNFα in the sample. Detection antibodies are mixed 50:50 and 5 μL were dispensed into each well. Plates were covered with clear seals and incubated at room temp overnight. […] Percent of control was calculated as follows: % Control=100×(RatioSample−Ratio0% stimulation)/(Ratio100% Stimulation−Ratio0% Stimulation) where unstimulated cells (0% stimulation) were the negative control and stimulated cells (100% stimulation) were used as the positive control.

Chain of IRAK4 enzyme (Q9NWZ3 whole entry): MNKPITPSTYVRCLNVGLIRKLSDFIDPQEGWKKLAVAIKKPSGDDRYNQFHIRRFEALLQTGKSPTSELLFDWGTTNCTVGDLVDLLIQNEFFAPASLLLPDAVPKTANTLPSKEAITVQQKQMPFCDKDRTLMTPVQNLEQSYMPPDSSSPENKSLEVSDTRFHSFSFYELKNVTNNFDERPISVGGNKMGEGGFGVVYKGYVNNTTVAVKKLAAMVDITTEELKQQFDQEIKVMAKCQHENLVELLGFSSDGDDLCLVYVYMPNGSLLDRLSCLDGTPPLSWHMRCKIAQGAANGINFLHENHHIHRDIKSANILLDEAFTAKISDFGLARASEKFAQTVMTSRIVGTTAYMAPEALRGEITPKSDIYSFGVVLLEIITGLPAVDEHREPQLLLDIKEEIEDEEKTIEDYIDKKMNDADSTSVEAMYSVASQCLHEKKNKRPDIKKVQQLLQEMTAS

SMILES	IC50 ([1]; TR-FRET (HTRF)) [nM]	EC50 ([2]; TNFα content) [nM]	IC50 ([1]; TR-FRET) [nM]	EC50 ([2]; TNFα by TR-FRET) [nM]
CC(=O)NC12CC(Nc3cc(-c4ccc5cc(C#N)cnn45)ncc3C(=O)NC[C@@H](F)C(C)(C)F)(C1)C2 [Example 494, (R)-4-((3-acetamido-bicyclo[1.1.1]pentan-1-yl)amino)-6-(3-cyano-pyrrolo[1,2-b]pyridazin-7-yl)-N-(2,3-difluoro-3-methylbutyl)nicotinamide]	< 1	44		
CC(C)(O)[C@H](F)CNC(=O)c1cnc(-c2ccc3cc(C#N)cnn23)cc1N[C@H]1CC[C@@H](N2CCC(F)(F)C2)CC1 [Example 724, 6-(3-cyanopyrrolo[1,2-b]pyridazin-7-yl)-4-(((1s,4S)-4-(3,3-difluoropyrrolidin-1-yl)cyclohexyl)amino)-N-((R)-2-fluoro-3-hydroxy-3-methylbutyl)nicotinamide]	< 1	59		
CC(C)(O)[C@H](F)CNC(=O)c1cnc(-c2ccc3cc(C#N)cnn23)cc1NC1Cc2ccncc2C1 (stereo partly drawn) [Example 672, 6-(3-cyanopyrrolo[1,2-b]pyridazin-7-yl)-4-((6,7-dihydro-5H-cyclopenta[c]pyridin-6-yl)amino)-N-((R)-2-fluoro-3-hydroxy-3-methylbutyl)nicotinamide]	< 1	66		
CC(C)(O)[C@H](F)CNC(=O)c1cnc(-c2ccc3cc(C#N)cnn23)cc1Nc1ccc(C#N)nc1 [Example 603, (R)-4-((6-cyanopyridin-3-yl)amino)-6-(3-cyano-pyrrolo[1,2-b]pyridazin-7-yl)-N-(2-fluoro-3-hydroxy-3-methylbutyl)nicotinamide]	1	81		
COC(=O)C12CCCC(Nc3cc(-c4ccc5cc(C#N)cnn45)ncc3C(=O)NC[C@@H](F)C(C)(C)O)(CC1)CC2 [Example 543, (R)-methyl 5-((2-(3-cyano-pyrrolo[1,2-b]pyridazin-7-yl)-5-((2-fluoro-3-hydroxy-3-methylbutyl)carbamoyl)pyridin-4-yl)amino)bicyclo[3.2.2] nonane-1-carboxylate]	2	49		
COC(=O)NCCCCNc1cc(-c2ccc3cc(C#N)cnn23)ncc1C(=O)NC[C@@H](F)C(C)(C)O [Example 717, (R)-methyl (4-((2-(3-cyano-pyrrolo[1,2-b]pyridazin-7-yl)-5-((2-fluoro-3-hydroxy-3-methylbutyl)carbamoyl)pyridin-4-yl)amino)butyl) carbamate]	< 1	66		
CC(C)(O)[C@H](F)CNC(=O)c1cnc(-c2ccc3cc(C#N)cnn23)cc1NC1CCCCC1 [Example 64, (R)-6-(3-cyanopyrrolo[1,2-b]pyridazin-7-yl)-4-(cyclohexylamino)-N-(2-fluoro-3-hydroxy-3-methylbutyl) nicotinamide]		70	< 1	
COC(=O)NC1CCN(c2ccc(Nc3cc(-c4ccc5cc(C#N)cnn45)ncc3C(=O)NC[C@@H](F)C(C)(C)O)cn2)CC1 [Example 881, (R)-methyl (1-(5-((2-(3-cyanopyrrolo[1,2-b]pyridazin-7-yl)-5-((2-fluoro-3-hydroxy-3-methylbutyl)carbamoyl)pyridin-4-yl)amino)pyridin-2-yl)piperidin-4-yl)carbamate]			< 1	84
COc1cc(Nc2cc(-c3ccc4cc(C#N)cnn34)ncc2C(=O)NC[C@@H](F)C(C)(C)O)ccn1 [Example 598, (R)-6-(3-cyano-pyrrolo[1,2-b]pyridazin-7-yl)-N-(2-fluoro-3-hydroxy-3-methyl-butyl)-4-((2-methoxy-pyridin-4-yl)amino) nicotinamide]	< 1	106		
CC(C)(O)[C@H](F)CNC(=O)c1cnc(-c2ccc3cc(C#N)cnn23)cc1Nc1ccccc1 [Example 589, (R)-6-(3-cyanopyrrolo[1,2-b]pyridazin-7-yl)-N-(2-fluoro-3-hydroxy-3-methylbutyl)-4-(phenylamino)nicotinamide]	< 1	95		
CC(=O)NC12CCC(Nc3cc(-c4ccc5cc(C#N)cnn45)ncc3C(=O)NC[C@@H](F)C(C)(C)O)(CC1)CC2 [Example 317, (R)-4-((4-acetamido-bicyclo[2.2.2]octan-1-yl)amino)-6-(3-cyano-pyrrolo[1,2-b]pyridazin-7-yl)-N-(2-fluoro-3-hydroxy-3-methylbutyl) nicotinamide]		11	< 1	
CC(C)(O)[C@H](F)CNC(=O)c1cnc(-c2ccc3cc(C#N)cnn23)cc1NC1CCN(CC(F)(F)F)CC1 [Example 329, (R)-6-(3-cyanopyrrolo[1,2-b]pyridazin-7-yl)-N-(2-fluoro-3-hydroxy-3-methylbutyl)-4-((1-(2,2,2-trifluoroethyl)piperidin-4-yl)amino)nicotinamide]		62	1	
CC(=O)Nc1cncc(NC(=O)c2cnc(-c3ccc4cc(C#N)cnn34)cc2NC(C)C)c1 [Example 491, N-(5-acetamidopyridin-3-yl)-6-(3-cyanopyrrolo[1,2-b]pyridazin-7-yl)-4-(isopropylamino) nicotinamide]	19	219		
CC(C)Nc1cc(-c2ccc3cc(C#N)cnn23)ncc1C(=O)NC1CC2(COC2)C1 [Example 96, 6-(3-cyanopyrrolo[1,2-b]pyridazin-7-yl)-4-(isopropyl-amino)-N-(2-oxaspiro[3.3]heptan-6-yl) nicotinamide]		79	2	
CC1(Nc2cc(-c3ccc4cc(C#N)cnn34)ncc2C(=O)NCC#N)COC1 [Example 612, N-(cyanomethyl)-6-(3-cyanopyrrolo[1,2-b]pyridazin-7-yl)-4-((3-methyloxetan-3-yl)amino)nicotinamide]	< 1	51		
CC(C)(O)CNC(=O)c1cnc(-c2ccc3cc(C#N)cnn23)cc1NC12CCC(O)(CC1)CC2 [Example 753, 6-(3-cyanopyrrolo[1,2-b]pyridazin-7-yl)-N-(2-hydroxy-2-methylpropyl)-4-((4-hydroxybicyclo[2.2.2]octan-1-yl)amino) nicotinamide]	7	225		
CNC(=O)[C@H](F)CNC(=O)c1cnc(-c2ccc3cc(C#N)cnn23)cc1NC12CCC(O)(CC1)CC2 [Example 945, (R)-6-(3-cyanopyrrolo[1,2-b]pyridazin-7-yl)-N-(2-fluoro-3-(methylamino)-3-oxopropyl)-4-((4-hydroxybicyclo[2.2.2]octan-1-yl)amino) nicotinamide]			1	116
CC(C)(O)[C@H](F)CNC(=O)c1cnc(-c2ccc3cc(C#N)cnn23)cc1Nc1ccc(-n2ccnc2)cc1 [Example 767, (R)-4-((4-(1H-imidazol-1-yl)phenyl)amino)-6-(3-cyanopyrrolo[1,2-b]pyridazin-7-yl)-N-(2-fluoro-3-hydroxy-3-methylbutyl)nicotinamide]	< 1	35		
COc1cc(Nc2cc(-c3ccc4cc(C#N)cnn34)ncc2C(=O)NC[C@@H](F)C(C)(C)O)ccc1C#N [Example 611, (R)-4-((4-cyano-3-methoxy-phenyl)amino)-6-(3-cyanopyrrolo[1,2-b]pyridazin-7-yl)-N-(2-fluoro-3-hydroxy-3-methylbutyl)nicotinamide]	15	> 10000		
CC(C)(O)[C@H](F)CNC(=O)c1cnc(-c2ccc3cc(C#N)cnn23)cc1N[C@H]1C[C@@H]2CN(S(C)(=O)=O)C[C@@H]2C1 [Example 250, 6-(3-cyanopyrrolo[1,2-b]pyridazin-7-yl)-N-((R)-2-fluoro-3-hydroxy-3-methylbutyl)-4-(((3aR,5s,6aS)-2-(methylsulfonyl)octa-hydrocyclopenta[c]pyrrol-5-yl)amino) nicotinamide]		37	1	
COCCOc1ncc(Nc2cc(-c3ccc4cc(C#N)cnn34)ncc2C(=O)NC[C@@H](F)C(C)(C)O)cn1 [Example 663, (R)-6-(3-cyanopyrrolo[1,2-b]pyridazin-7-yl)-N-(2-fluoro-3-hydroxy-3-methylbutyl)-4-((2-(2-methoxyethoxy)pyrimidin-5-yl)amino)nicotinamide]	< 1	52		
CC(C)(O)[C@H](F)CNC(=O)c1cnc(-c2ccc3cc(C#N)cnn23)cc1N[C@H]1C[C@H](Cn2cncn2)C1 [Example 776, 4-(((1r,3R)-3-((1H-1,2,4-triazol-1-yl)methyl)cyclo-butyl)amino)-6-(3-cyano-pyrrolo[1,2-b]pyridazin-7-yl)-N-((R)-2-fluoro-3-hydroxy-3-methylbutyl) nicotinamide]	1	32		
CC(=O)Nc1ccc(Nc2cc(-c3ccc4cc(C#N)cnn34)ncc2C(=O)NC[C@@H](F)C(C)(C)O)cn1 [Example 662, (R)-4-((6-acetamido-pyridin-3-yl)amino)-6-(3-cyanopyrrolo[1,2-b]pyridazin-7-yl)-N-(2-fluoro-3-hydroxy-3-methylbutyl)nicotinamide]	< 1	12		
N#CCNC(=O)c1cnc(-c2ccc3cc(C#N)cnn23)cc1NC12CCC(C(=O)N3CC(F)(F)C3)(CC1)CC2 [Example 474, N-(cyanomethyl)-6-(3-cyanopyrrolo[1,2-b]pyridazin-7-yl)-4-((4-(3,3-difluoroazetidine-1-carbonyl)bicyclo[2.2.2]octan-1-yl)amino)nicotinamide]	< 1	23		
Cn1nccc1CNC(=O)c1cnc(-c2ccc3cc(C#N)cnn23)cc1NC12CCC(O)(CC1)CC2 [Example 934, 6-(3-cyanopyrrolo[1,2-b]pyridazin-7-yl)-4-((4-hydroxybicyclo[2.2.2]octan-1-yl)amino)-N-((1-methyl-1H-pyrazol-5-yl)methyl)nicotinamide]			3	271
CC(C)(O)[C@H](F)CNC(=O)c1cnc(-c2ccc3cc(C#N)cnn23)cc1NC1CS(=O)(=O)C1 [Example 77, (R)-6-(3-cyanopyrrolo[1,2-b]pyridazin-7-yl)-4-((1,1-dioxidothietan-3-yl)amino)-N-(2-fluoro-3-hydroxy-3-methylbutyl)nicotinamide]		352	2	
